Laboratory results as given in US10172581B2, “Methods of assessing tumor growth” (Dana-Farber Cancer Institute, Inc., priority 2013, dated 2019).
Where two headings read alike, the source gives them in different places.

Experiments:
[1] = system: NSCLC with sensitizing EGFR mutations (dominant measurable lung lesion); conditions: for tumor volume: same patient
Experimental: Patients provided informed consent and their records were retrospectively reviewed with IRB approval.
Baseline and follow-up CT scans were performed to determine response to EGFR-TKI using the clinical chest CT protocol [31]. Follow-up CT scans were performed every 8 weeks for 33 patients enrolled in prospective trials of EGFR-TKI, and at the discretion of the treating providers for 25 patients treated off protocol [5,25,45-47]. […] The nadir (the smallest tumor volume recorded from baseline to TKI termination/last follow-up) was determined for each patient.
1, 2012, were analyzed. Demographics and disease characteristics were summarized with descriptive statistics. A linear mixed effects model, fitting time as a random effect [48], was fitted to the repeated measures of volume data to estimate the effect of time and other prognostic factors on tumor growth. The tumor volume (mm^3) was transformed to the natural logarithm scale, and the logarithm of tumor volume (logeV) was used. The first model was built adjusting only for time in months from baseline. Since the baseline volume (logeV0; the tumor volume measured on the baseline scan performed before the initiation of TKI therapy) may influence the tumor volume and its growth rate, the second model was adjusted for time and logeV0.

[2] = system: stage IV lung adenocarcinoma; test: CT follow-up of a lung adenocarcinoma patient on crizotinib (FIG. 4); assay type: in vivo, human; conditions: person, 8 weeks

Row | SMILES | tumor volume at nadir ([1]; person, stage IV lung adenocarcinoma, 4 month of therapy, baseline 25,016 mm^3) | tumor volume ([1]; 5 month, regrowth after nadir) | tumor volume ([1]; 7 month) | change of lung lesion on CT [2]
1 | C#Cc1cccc(Nc2ncnc3cc(OCCOC)c(OCCOC)cc23)c1 [erlotinib] | 5,288 mm^3 | 7,490 mm^3 | 12,922 mm^3 | 
2 | C[C@@H](Oc1cc(-c2cnn(C3CCNCC3)c2)cnc1N)c1c(Cl)ccc(F)c1Cl [crizotinib] |  |  |  | marked decrease of the lesion and nodular pericardial thickening
